Experiments:
PC-3 [1] = experiment: Cytotoxicity against human PC3 cells after 72 hrs by CellTiter one aqueous solution assay; type: functional, cell-based; conditions: PC-3, 72 h
PC-3 [2] = experiment: Cytotoxicity against human PC3 cells at 0.5 uM after 72 hrs in presence of 41 ug/ml eugenol by CellTiter one aqueous solution assay relative to control; type: functional
HeLa [3] = experiment: Growth inhibition of human HeLa cells at 10 uM to 1 mM after 24 hrs by MTT assay relative to control; type: functional
HeLa [4] = experiment: Antiproliferative activity against human HeLa cells at 150 uM after 24 hrs by MTT assay relative to control; type: functional
HeLa [5] = experiment: Antiproliferative activity against human HeLa cells after 24 hrs by MTT assay relative to control; type: functional
PC-3 [6] = experiment: Cytotoxicity against human PC3 cells at 41 ug/ml after 72 hrs in presence of 0.5 uM 2ME2 by CellTiter one aqueous solution assay relative to control; type: functional
Mus musculus [7] = organism: Mus musculus; experiment: Down-regulation of c-Myc mRNA expression in mouse relative to control; type: functional
Mus musculus [8] = organism: Mus musculus; experiment: Down-regulation of H-ras mRNA expression in mouse relative to control; type: functional
HeLa [9] = experiment: Antiproliferative activity against human HeLa cells at 15 mM after 24 hrs by MTT assay relative to control; type: functional

For `COc1cc2c(cc1O)CC[C@@H]1[C@@H]2CC[C@]2(C)[C@@H](O)CC[C@@H]12` [2-METHOXYESTRADIOL], the IC50 (PC-3 [1]) was 82 µg/mL and the Activity (PC-3 [2]) was 50%.

`C=CCc1ccc(O)c(OC)c1` [EUGENOL] was tested, and the “growth inhibition (GI)” value (HeLa [3]) was 50%, the Activity (HeLa [4]) was 47% and the Activity (HeLa [5]) was 84%. It also gave an IC50 (PC-3 [1]) of 1000 nM, an Activity (PC-3 [6]) of 50% and an Activity (Mus musculus [7]) of 40%. For the same molecule, the Activity (Mus musculus [8]) was 28%.

Molecule `Nc1ccn([C@@H]2O[C@H](CO)[C@@H](O)C2(F)F)c(=O)n1` [GEMCITABINE] has an Activity (HeLa [9]) of 47% and an Activity (HeLa [5]) of 73%.
